The values that follow come from patent publication US11014898B1, “Benzothiazepine compounds and their use as bile acid modulators” (Albireo AB, priority 2020, dated 2021).

The nature of this data set: Bidirectional permeability assay (Caco-2 cells). It counts as in vitro ADME. Particulars: human, Caco-2, pH 7.4, 10 μM in FaSSIF buffer, 120 minutes at 37° C.; for Papp A→B at 120 min, 10 μM: absorptive direction (A2B); for Papp B→A at 120 min, 10 μM: secretory direction (B2A). The protocol: Caco-2 cells (Evotec) were seeded at a density of 70,000 cells/well in Millicell® 24-well cell culture insert plates and maintained in an incubator (37° C., 5% CO2, 95% RH) for 21 days with media change on alternate days.
Stock solutions (10 mM) of the test compounds, atenolol (low permeability marker), propranolol (high permeability marker) and digoxin (substrate for P-gp transport pathway) were prepared in dimethylsulfoxide (DMSO). An intermediate stock solution (1 mM) was prepared by diluting 10 μL of 10 mM master stock solution with 90 μL of neat DMSO. A working stock solution (10 μM) was prepared by diluting 50 μL of 1 mM with 4950 μL of FaSSIF buffer. Post addition of compounds to the FaSSIF, samples were subjected to sonication for 2 hours, and centrifuged at 4000 RPM for 30 minutes at 37° C. The 4 mL of resultant supernatant was directly used in the assay. The final DMSO concentration in the transport experiments was 1%.
On the day of assay, Caco-2 monolayers were washed twice with transport buffer (HBSS, pH 7.4) and pre-incubated for 30 min (37° C., 5% CO2, 95% RH) in an incubator. The electrical resistance of the monolayers was measured with a Millicell®-ERS system. Monolayers with trans-epithelial electrical resistance (TEER) values greater than 350 ohm·cm^2 were selected for the assay.
The assay was conducted in absorptive direction (A2B) and secretory (B2A) directions. Transport experiments were initiated by addition of transport assay buffer (FaSSIF buffer prepared in HBSS) consisting of compounds to the donor compartment (apical chamber A-B; basolateral chamber B-A) in duplicate (n=2) wells. Drug free HBSS buffer (pH 7.4) containing 1% bovine serum albumin (BSA) was introduced to the receiver (A-B-basolateral; B-A-Apical) compartments. The volumes of apical and basolateral compartments were 0.4 and 0.8 mL, respectively. After adding dosing solution, plates were incubated in an incubator for 120 minutes at 37° C. After 120 minutes, donor and receiver samples were collected and matrix matched (1:1, 30 μL study sample+30 μL blank buffer) with the opposite buffer. Dosing samples matrix matched (1:1, 30 μL study sample+30 μL blank buffer) with the opposite buffer. Samples were processed by adding acetonitrile containing internal standard (60 μL study sample+200 μL acetonitrile containing internal standard-Tolbutamide, 500 ng/mL). Samples were vortexed and centrifuged at 4000 rpm for 10 minutes. The obtained supernatant (100 μL) was diluted with 100 μL of water and transferred to fresh 96 well plates. The concentration of compounds in the samples was analyzed by liquid chromatography tandem mass spectrometry (LC-MS/MS) method using discovery grade bio-analytical method, as applicable.
The mean apparent permeability (Papp×10^−6 cm/sec) of the test compounds, atenolol, propranolol and digoxin were calculated as follows:
where dq/dt=rate of transport (rate of transport of compound in the receiver compartment), C0=initial concentration in the donor compartment, A=surface area of the effective filter membrane.
In general terms: Caco-2 cells form a polarised layer with tight junctions and transporters.

Usually Papp A→B stands for how fast a substance crosses the layer from the apical side. The low end stands for poor permeation, the high end for ready permeation. The Papp B→A is how fast a substance crosses the layer from the basolateral side. On to `CCCCC1(CCCC)CN(c2ccc(Br)cc2)c2cc(SC)c(OCC(=O)O)cc2S(=O)(=O)C1` [Example 3, 2-((5-(4-bromophenyl)-3,3-dibutyl-7-(methylthio)-1,1-dioxido-2,3,4,5-tetrahydro-1,5-benzothiazepin-8-yl)oxy)acetic Acid], for which the apparent permeability from apical to basolateral (Papp A→B) at 120 min, 10 μM worked out at 4.1 ×10⁻⁶ cm/s and the Papp B→A at 120 min, 10 μM came out at 1.9 ×10⁻⁶ cm/s.

For `CCCCC1(CCCC)CN(c2ccc(O)cc2)c2cc(SC)c(OCC(=O)O)cc2S(=O)(=O)C1` [Example 4, 2-((3,3-dibutyl-5-(4-hydroxyphenyl)-7-(methylthio)-1,1-dioxido-2,3,4,5-tetrahydro-1,5-benzothiazepin-8-yl)oxy)acetic Acid], the Papp A→B at 120 min, 10 μM stood at 3.3 ×10⁻⁶ cm/s and the Papp B→A at 120 min, 10 μM was found to be 8.9 ×10⁻⁶ cm/s.
